Assay results reported in US4767770A, “Method of inhibiting aromatase” (Eli Lilly and Company, priority 1984, dated 1988).
Read-outs that look alike come from different tables or passages of the source.

Legend:
aromatase = molecular target: T1, aromatase (Rattus norvegicus, UniProt P22443); assay: biochemical
T1 sequence (P22443 1-508): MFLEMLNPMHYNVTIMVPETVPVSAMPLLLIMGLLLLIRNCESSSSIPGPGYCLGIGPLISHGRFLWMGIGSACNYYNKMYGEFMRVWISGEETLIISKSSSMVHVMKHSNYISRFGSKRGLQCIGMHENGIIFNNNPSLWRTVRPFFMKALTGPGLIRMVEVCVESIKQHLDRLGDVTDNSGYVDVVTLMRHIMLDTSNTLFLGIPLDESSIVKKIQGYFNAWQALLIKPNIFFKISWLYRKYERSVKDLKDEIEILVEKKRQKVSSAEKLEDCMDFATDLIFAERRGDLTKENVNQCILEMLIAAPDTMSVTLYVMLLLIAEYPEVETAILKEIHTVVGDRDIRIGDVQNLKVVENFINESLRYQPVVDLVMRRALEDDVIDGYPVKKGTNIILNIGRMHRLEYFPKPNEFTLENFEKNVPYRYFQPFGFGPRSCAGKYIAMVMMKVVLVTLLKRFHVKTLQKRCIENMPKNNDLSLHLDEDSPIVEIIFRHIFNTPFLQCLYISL
Procedure: In this test system, ovarian microsomes are obtained from rats treated with pregnant mares serum gonadotropin. Test compounds are added to reaction vials containing 0.1 μM 4-androstene-3,17-dione, 100,000 dpm 1,2[^3 H]-androstenedione, the microsomes and a NADPH generating system. The concentrations of the inhibitors tested ranged between 0.005 and 10 μM.

[1] = tested on: estrogen synthesis (aromatization); uterus; assay: Estrogen Synthesis Inhibition in Rats: uterine weight of testosterone propionate-treated immature rats; type: in vivo, immature female Wistar rats; conditions: 7 days
Procedure: Immature female Wistar rats (45-55 grams) were divided into control and test groups of 2-8 animals each. Test compounds were administered for seven days as a component of the diet. Control animals received diet without the test compound. Beginning on the fourth day of the test, all animals treated with the test compound and one half of the control animals were given a subcutaneous injection of 1.0 mg of testosterone propionate in corn oil. The remaining control animals received only an equivalent volume of corn oil. On the seventh day of the test, rats treated with testosterone propionate were injected subcutaneously with 100 μCi of [^3 H]-testosterone in 50 μl of 3:1 (v/v) saline-ethanol.
After two hours, the animals were killed by decapitation. Uteri were isolated, trimmed of extraneous connective tissue, and weighed. […] In the control animals treated with testosterone propionate, estrogens produced by aromatization stimulated the uterus resulting in an increase in weight.
*ppm in feed. 300 ppm corresponds to approximately 30 mg/kg/day; 200 ppm
corresponds to approximately 20 mg/kg/day; 30 ppm corresponds to
approximately 3 mg/kg/day.

[2] = tested on: estrogen synthesis (ovarian estradiol, estrone, estriol); assay: Estrogen Synthesis Inhibition in Rats: ovarian steroid concentration after [3H]-testosterone; type: in vivo, immature female Wistar rats; conditions: 7 days
Procedure: Test compounds were administered for seven days as a component of the diet. Control animals received diet without the test compound. Beginning on the fourth day of the test, all animals treated with the test compound and one half of the control animals were given a subcutaneous injection of 1.0 mg of testosterone propionate in corn oil. The remaining control animals received only an equivalent volume of corn oil.
The ovarian steroids were extracted with 1.5 ml of 9:1 (v/v) toluene/ethanol to which had been added 25 to 100 mcg each of unlabelled estradiol, estriol, and estrone, and approximately 1000 dpm of [^14 C]-estradiol. The samples were vortexed, centrifuged at 500×g for 10 minutes, and the organic phase was transferred to a conical vial. Two additional extractions were performed on the residue in the same way. The pooled organic extracts were evaporated for subsequent thin-layer chromatography.
Ovarian proteins were precipitated by the addition of 5.0 ml of ethanol to the remaining aqueous phase. After an overnight incubation at 4° C., the samples were centrifuged at 1500×g for 10 minutes. The supernatant was discarded and the pellet was dissolved in 0.3N potassium hydroxide.
The organic residue from each above extraction was redissolved in 9:1 (v/v) dichloromethane/methanol. The solution of each sample was applied to separate silica gel thin layer chromatography plates which contained a fluorescent indicator. The plates were developed in the first dimension with 160:38:1.5:0.5 (v/v/v/v) dichloromethane/ethyl acetate/methanol/acetic acid to within 3 cm of the top of the plate. After air-drying, the plate was developed in the second dimension with 180:19:1 (v/v/v) dichloromethane/methanol/ammonium hydroxide.
The spots were scraped from the plate using a glass wool plugged Pasteur pipet attached to a vacuum line. The steroids were eluted directly into scintillation vials by the addition of 0.2 ml of dichloromethane followed by two washes each of 2.0 ml of methanol. The organic solvent was evaporated and 10.0 ml of scintillation fluid (Beckman Ready Solv-NA) was added to the vials. Samples were analyzed by liquid scintillation spectrometry. Corrections were made based on the recoveries of the [^14 C]-steroid. Steroid concentrations are expressed as femtomoles per milligram protein.

[3] = tested on: DMBA-induced mammary tumors; assay: DMBA-induced Mammary Tumor Inhibition; type: in vivo, female Sprague-Dawley rats; conditions: Test I, 300 ppm in diet (approx. 30 mg/kg/day), 5 weeks
Procedure: Mammary tumors were produced in female Sprague-Dawley rats which were 50-60 days old by the gavage administration of 20 mg of 7,12-dimethylbenz[a]anthracene (DMBA). About six weeks after DMBA administration, the mammary glands were palpated at weekly intervals for the appearance of tumors. Whenever one or more tumors appeared and were measurable in an animal, that animal was selected for experimentation. […] Each control and test group contained 8 animals. The test compound was administered mixed into the food at a concentration of 300 ppm (corresponding to an appropriate daily dose of 30 mg/kg). Every experiment included a group of control rats having tumors and were given food without the compound admixed. […] The area of each tumor was calculated by multiplying the shortest and longest diameters of the tumor. The treatment and measurement of animals continued for 4-5 weeks at which time the final areas of the tumors were determined. For each compound (and control) at each dose level, the change in the mean tumor area was determined.
*dosed in the diet. 300 ppm corresponds to approximately 30 mg/kg/day.

[4] = rat ovarian microsomes, substrate (androstenedione) 0.1 μM
[5] = Test IV, 200 ppm in feed (approx. 20 mg/kg/day), testosterone-treated control 213.5
[6] = Test IV, 200 ppm in feed (approx. 20 mg/kg/day), testosterone-treated control 0.14
[7] = Test IV, 200 ppm in feed (approx. 20 mg/kg/day), testosterone-treated control 0.24
[8] = Test IV, 200 ppm in feed (approx. 20 mg/kg/day), testosterone-treated control 1.98

Fc1ccc(N(Cc2cccnc2)C2=NCCS2)c(F)c1 [N--(2,4-difluorophenyl)-N--(4,5-dihydro-2-thiazolyl)-3-pyridinemethanamine]
EC50 (aromatase; [4]): 28 nM
Mean Uterine Weight ([1]; Test II, 30 ppm in feed (approx. 3 mg/kg/day), testosterone-treated control 176.7): 140.0 mg
Mean Uterine Weight ([1]; Test II, 300 ppm in feed (approx. 30 mg/kg/day), value marked + (p < 0.05 vs testosterone-treated control, 176.7)): 104.5 mg
Mean Steroid Concentration, estrone ([2]; Test II, 30 ppm in feed (approx. 3 mg/kg/day), testosterone-treated control 0.64): 0.65 femtomoles per milligram of protein
Mean Steroid Concentration, estriol ([2]; Test II, 30 ppm in feed (approx. 3 mg/kg/day), testosterone-treated control 1.98): 1.56 femtomoles per milligram of protein
Mean Steroid Concentration, estradiol ([2]; Test II, 30 ppm in feed (approx. 3 mg/kg/day), testosterone-treated control 2.07): 1.27 femtomoles per milligram of protein
Mean Steroid Concentration, estriol ([2]; Test II, 300 ppm in feed (approx. 30 mg/kg/day), testosterone-treated control 1.98): 1.18 femtomoles per milligram of protein
Mean Steroid Concentration, estrone ([2]; Test II, 300 ppm in feed (approx. 30 mg/kg/day), value marked + (p < 0.05 vs testosterone-treated control, 0.64)): 0.31 femtomoles per milligram of protein
Mean Steroid Concentration, estradiol ([2]; Test II, 300 ppm in feed (approx. 30 mg/kg/day), value marked + (p < 0.05 vs testosterone-treated control, 2.07)): 1.05 femtomoles per milligram of protein
Mean Tumor Area, Start ([3]; baseline, control 73.9): 83.6 mm^2
Mean Tumor Area, Finish ([3]; control 1140.0): 536.0 mm^2

Clc1ccc(CN(Cc2cccnc2)C2=NCCS2)c(Cl)c1 [N--(4,5-dihydro-2-thiazolyl)-N--(2,4-dichlorobenzyl)-3-pyridinemethanamine]
EC50 (aromatase): 118 nM

Brc1ccc(N(Cc2cccnc2)C2=NCCS2)cc1 [N--(4,5-dihydro-2-thiazolyl)-N--(4-bromophenyl)-3-pyridinemethanamine]
EC50 (aromatase): 110 nM

CC(c1ccc(F)cc1)N(C1=NCCS1)C(C)c1cccnc1 (stereo not drawn) [N--(4,5-dihydro-2-thiazolyl)-N--[1-(4-fluorophenyl)ethyl]-α-methyl-3-pyridinemethanamine]
EC50 (aromatase): 3300 nM

Clc1ccc(CCN(Cc2cccnc2)C2=NCCS2)cc1 [N--(4,5-dihydro-2-thiazolyl)-N--[2-(4-chlorophenyl)ethyl]-3-pyridinemethanamine]
EC50 (aromatase; [4]): 900 nM

CSc1ccc(N(Cc2cccnc2)C2=NCCS2)cc1 [N--(4,5-dihydro-2-thiazolyl)-N--[4-(methylthio)phenyl]-3-pyridinemethanamine]
EC50 (aromatase; [4]): 3200 nM

c1ccc(N(Cc2cccnc2)C2=NCCS2)cc1 [N--(4,5-dihydro-2-thiazolyl)-N--phenyl-3-pyridinemethanamine]
EC50 (aromatase): 460 nM

Cc1cc(Cl)ccc1N(Cc1cccnc1)C1=NCCS1 [N--(4-chloro-2-methylphenyl)-N--(4,5-dihydro-2-thiazolyl)-3-pyridinemethanamine]
EC50 (aromatase; [4]): 440 nM

Clc1ccc(N(Cc2cccnc2)C2=NCCCS2)cc1 [N--(4-chlorophenyl)-5,6-dihydro-N--(3-pyridylmethyl)-4H--1,3-thiazin-2-amine]
EC50 (aromatase): 72 nM
Mean Uterine Weight [1, 5]: 193.0 mg
Mean Steroid Concentration, estriol [2, 6]: 0.04 femtomoles per milligram of protein
Mean Steroid Concentration, estrone [2, 7]: 0.11 femtomoles per milligram of protein
Mean Steroid Concentration, estradiol [2, 8]: 1.54 femtomoles per milligram of protein

Clc1ccc(N(Cc2cccnc2)C2=NCCO2)cc1 [N--(4-chlorophenyl)-N--(4,5-dihydro-2-oxazolyl)-3-pyridinemethanamine]
EC50 (aromatase): 80 nM

Clc1ccc(N(Cc2cnccn2)C2=NCCS2)cc1 [N--(4-chlorophenyl)-N--(4,5-dihydro-2-thiazolyl)-2-pyrazinemethanamine]
EC50 (aromatase): 3130 nM

Clc1ccc(N(Cc2cncnc2)C2=NCCS2)cc1 [N--(4-chlorophenyl)-N--(4,5-dihydro-2-thiazolyl)-5-pyrimidinemethanamine]
EC50 (aromatase): 610 nM

CC(c1cccnc1)N(C1=NCCS1)c1ccc(Cl)cc1 (stereo not drawn) [N--(4-chlorophenyl)-N--(4,5-dihydro-2-thiazolyl)-α-methyl-3-pyridinemethanamine]
EC50 (aromatase; [4]): 2350 nM

CC1CSC(N(Cc2cccnc2)c2ccc(Cl)cc2)=N1 (centres unmarked) [N--(4-chlorophenyl)-N--(4,5-dihydro-4-methyl-2-thiazolyl)-3-pyridinemethanamine]
Mean Uterine Weight ([1]; Test III, 30 ppm in feed (approx. 3 mg/kg/day), testosterone-treated control 220.0): 225.5 mg
Mean Uterine Weight ([1]; Test III, 300 ppm in feed (approx. 30 mg/kg/day), testosterone-treated control 220.0): 187.6 mg
Mean Steroid Concentration, estrone ([2]; Test III, 30 ppm in feed (approx. 3 mg/kg/day), testosterone-treated control 1.02): 1.14 femtomoles per milligram of protein
Mean Steroid Concentration, estradiol ([2]; Test III, 30 ppm in feed (approx. 3 mg/kg/day), testosterone-treated control 1.31): 2.40 femtomoles per milligram of protein
Mean Steroid Concentration, estriol ([2]; Test III, 30 ppm in feed (approx. 3 mg/kg/day), testosterone-treated control 1.32): 1.56 femtomoles per milligram of protein
Mean Steroid Concentration, estrone ([2]; Test III, 300 ppm in feed (approx. 30 mg/kg/day), testosterone-treated control 1.02): 0.62 femtomoles per milligram of protein
Mean Steroid Concentration, estradiol ([2]; Test III, 300 ppm in feed (approx. 30 mg/kg/day), testosterone-treated control 1.31): 0.95 femtomoles per milligram of protein
Mean Steroid Concentration, estriol ([2]; Test III, 300 ppm in feed (approx. 30 mg/kg/day), testosterone-treated control 1.32): 0.37 femtomoles per milligram of protein

CC1CSC(N(c2ccc(Cl)cc2)C(C)c2cccnc2)=N1 (stereo not drawn) [N--(4-chlorophenyl)-N--(4,5-dihydro-4-methyl-2-thiazolyl)-α-methyl-3-pyridinemethanamine]
EC50 (aromatase; [4]): 1950 nM

CC(c1ccc(Cl)cc1)N(Cc1cccnc1)C1=NCCS1 (centres unmarked) [N--[1-(4-chlorophenyl)ethyl]-N--(4,5-dihydro-2-thiazolyl)-3-pyridinemethanamine]
EC50 (aromatase): 48 nM
Mean Uterine Weight [1, 5]: 185.8 mg
Mean Steroid Concentration, estriol [2, 6]: 0.04 femtomoles per milligram of protein
Mean Steroid Concentration, estrone [2, 7]: 0.13 femtomoles per milligram of protein
Mean Steroid Concentration, estradiol [2, 8]: 1.01 femtomoles per milligram of protein
